Measurements taken from patent publication US7074789B2, “Kinase inhibitors” (Amgen Inc., priority 1999, dated 2006).

Experiments:
Format in all cases: biochemical
[1] = biological target: T1, EGFR (Homo sapiens, UniProt P00533); assay: Kinase inhibition assay (33P transfer), EGFR; conditions: Table 2, kinase inhibition class; read-out: EGFR-1
T1 construct: Kinases are expressed as either kinase domains or full length constructs; made in house
Summary of the method: (§1)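 Steps: coat wells with poly(Glu,Tyr) 4:1 or poly(Arg,Ser) 3:1; add purified kinase, [33P]ATP and inhibitor; incubate; wash with 0.5% phosphoric acid; add liquid scintillant; count. IC50 corresponds to half-maximal reduction of bound 33P.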

[2] = biological target: T2, PDGFRB (Homo sapiens, UniProt P09619); assay: Kinase inhibition assay (33P transfer), PDGFRB; conditions: read-out: PDGFRB-1
T2 construct: Kinases are expressed as either kinase domains or full length constructs; made in house
T2 sequence (P09619 33-1106, species assumed): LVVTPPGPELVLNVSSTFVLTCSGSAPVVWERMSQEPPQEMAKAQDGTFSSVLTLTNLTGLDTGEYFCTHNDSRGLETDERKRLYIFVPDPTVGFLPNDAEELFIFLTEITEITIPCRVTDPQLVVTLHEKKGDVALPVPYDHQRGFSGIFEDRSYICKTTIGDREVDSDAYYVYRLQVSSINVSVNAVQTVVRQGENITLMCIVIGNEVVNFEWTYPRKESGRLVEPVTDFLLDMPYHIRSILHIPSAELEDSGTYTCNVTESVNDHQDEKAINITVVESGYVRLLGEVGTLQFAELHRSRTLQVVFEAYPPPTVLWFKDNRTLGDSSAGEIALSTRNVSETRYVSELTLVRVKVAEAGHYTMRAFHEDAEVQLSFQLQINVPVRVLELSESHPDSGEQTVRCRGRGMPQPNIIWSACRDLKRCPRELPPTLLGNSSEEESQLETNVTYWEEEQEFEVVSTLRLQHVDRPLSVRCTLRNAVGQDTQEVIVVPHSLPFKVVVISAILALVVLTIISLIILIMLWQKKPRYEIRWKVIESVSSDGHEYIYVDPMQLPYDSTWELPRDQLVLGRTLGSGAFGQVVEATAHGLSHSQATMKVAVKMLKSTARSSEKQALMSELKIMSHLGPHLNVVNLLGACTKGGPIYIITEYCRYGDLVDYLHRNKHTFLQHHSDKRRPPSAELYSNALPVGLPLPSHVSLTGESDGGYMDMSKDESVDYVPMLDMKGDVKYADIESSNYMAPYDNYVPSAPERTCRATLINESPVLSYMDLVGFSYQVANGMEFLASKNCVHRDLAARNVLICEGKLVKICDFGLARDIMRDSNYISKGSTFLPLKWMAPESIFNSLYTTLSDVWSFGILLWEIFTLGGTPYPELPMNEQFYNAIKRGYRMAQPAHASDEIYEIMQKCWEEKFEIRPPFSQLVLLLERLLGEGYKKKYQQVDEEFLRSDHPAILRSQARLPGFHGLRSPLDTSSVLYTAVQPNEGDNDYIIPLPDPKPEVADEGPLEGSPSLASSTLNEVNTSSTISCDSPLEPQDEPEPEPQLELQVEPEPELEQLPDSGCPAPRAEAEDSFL

[3] = biological target: T3, FGFR1 (Homo sapiens, UniProt P11362); assay: Kinase inhibition assay (33P transfer), FGFR1; conditions: read-out: FGFR1-1
T3 construct: Kinases are expressed as either kinase domains or full length constructs; made in house

[4] = biological target: T4, Zap-70 (Homo sapiens, UniProt P43403); assay: Kinase inhibition assay (33P transfer), Zap-70; conditions: Table 3; read-out: Zap-1
T4 construct: Kinases are expressed as either kinase domains or full length constructs; made in house
T4 sequence (P43403 1-619): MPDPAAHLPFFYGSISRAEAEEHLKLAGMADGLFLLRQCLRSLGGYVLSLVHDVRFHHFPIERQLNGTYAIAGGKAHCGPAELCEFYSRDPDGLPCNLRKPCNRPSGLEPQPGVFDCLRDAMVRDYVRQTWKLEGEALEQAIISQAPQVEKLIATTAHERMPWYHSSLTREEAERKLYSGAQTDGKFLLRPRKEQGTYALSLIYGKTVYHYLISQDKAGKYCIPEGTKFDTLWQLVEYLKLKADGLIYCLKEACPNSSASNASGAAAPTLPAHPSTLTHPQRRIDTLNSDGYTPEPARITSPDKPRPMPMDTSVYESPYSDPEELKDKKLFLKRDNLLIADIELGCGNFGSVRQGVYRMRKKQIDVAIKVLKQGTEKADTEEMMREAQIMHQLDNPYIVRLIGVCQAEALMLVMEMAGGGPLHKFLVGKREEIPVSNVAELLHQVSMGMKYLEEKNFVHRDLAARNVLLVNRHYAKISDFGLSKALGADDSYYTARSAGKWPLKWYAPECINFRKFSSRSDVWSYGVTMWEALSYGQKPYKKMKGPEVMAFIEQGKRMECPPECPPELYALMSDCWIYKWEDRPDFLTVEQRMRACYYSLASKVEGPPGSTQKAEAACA
Summary of the method: (§2)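 Steps: express kinase as GST or polyHistidine fusion in E. coli or High Five cells; optionally co-express or mix with regulatory polypeptides; incubate with 33P-ATP and plate-attached poly(Glu,Tyr) 4:1 or poly(Arg,Ser) 3:1; wash with 0.5% phosphoric acid; count by liquid scintillation.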

[5] = biological target: T5, Lck (Homo sapiens, UniProt P06239); assay: Kinase inhibition assay (33P transfer), Lck; conditions: Table 3; read-out: Lck-1
T5 construct: Kinases are expressed as either kinase domains or full length constructs; made in house
Summary of the method: as §2

[6] = biological target: T6, c-Met (Homo sapiens, UniProt P08581); assay: Kinase inhibition assay (33P transfer), c-Met; conditions: Table 2, kinase inhibition class; read-out: Met-1
T6 construct: Kinases are expressed as either kinase domains or full length constructs; made in house
T6 sequence (P08581 25-1390): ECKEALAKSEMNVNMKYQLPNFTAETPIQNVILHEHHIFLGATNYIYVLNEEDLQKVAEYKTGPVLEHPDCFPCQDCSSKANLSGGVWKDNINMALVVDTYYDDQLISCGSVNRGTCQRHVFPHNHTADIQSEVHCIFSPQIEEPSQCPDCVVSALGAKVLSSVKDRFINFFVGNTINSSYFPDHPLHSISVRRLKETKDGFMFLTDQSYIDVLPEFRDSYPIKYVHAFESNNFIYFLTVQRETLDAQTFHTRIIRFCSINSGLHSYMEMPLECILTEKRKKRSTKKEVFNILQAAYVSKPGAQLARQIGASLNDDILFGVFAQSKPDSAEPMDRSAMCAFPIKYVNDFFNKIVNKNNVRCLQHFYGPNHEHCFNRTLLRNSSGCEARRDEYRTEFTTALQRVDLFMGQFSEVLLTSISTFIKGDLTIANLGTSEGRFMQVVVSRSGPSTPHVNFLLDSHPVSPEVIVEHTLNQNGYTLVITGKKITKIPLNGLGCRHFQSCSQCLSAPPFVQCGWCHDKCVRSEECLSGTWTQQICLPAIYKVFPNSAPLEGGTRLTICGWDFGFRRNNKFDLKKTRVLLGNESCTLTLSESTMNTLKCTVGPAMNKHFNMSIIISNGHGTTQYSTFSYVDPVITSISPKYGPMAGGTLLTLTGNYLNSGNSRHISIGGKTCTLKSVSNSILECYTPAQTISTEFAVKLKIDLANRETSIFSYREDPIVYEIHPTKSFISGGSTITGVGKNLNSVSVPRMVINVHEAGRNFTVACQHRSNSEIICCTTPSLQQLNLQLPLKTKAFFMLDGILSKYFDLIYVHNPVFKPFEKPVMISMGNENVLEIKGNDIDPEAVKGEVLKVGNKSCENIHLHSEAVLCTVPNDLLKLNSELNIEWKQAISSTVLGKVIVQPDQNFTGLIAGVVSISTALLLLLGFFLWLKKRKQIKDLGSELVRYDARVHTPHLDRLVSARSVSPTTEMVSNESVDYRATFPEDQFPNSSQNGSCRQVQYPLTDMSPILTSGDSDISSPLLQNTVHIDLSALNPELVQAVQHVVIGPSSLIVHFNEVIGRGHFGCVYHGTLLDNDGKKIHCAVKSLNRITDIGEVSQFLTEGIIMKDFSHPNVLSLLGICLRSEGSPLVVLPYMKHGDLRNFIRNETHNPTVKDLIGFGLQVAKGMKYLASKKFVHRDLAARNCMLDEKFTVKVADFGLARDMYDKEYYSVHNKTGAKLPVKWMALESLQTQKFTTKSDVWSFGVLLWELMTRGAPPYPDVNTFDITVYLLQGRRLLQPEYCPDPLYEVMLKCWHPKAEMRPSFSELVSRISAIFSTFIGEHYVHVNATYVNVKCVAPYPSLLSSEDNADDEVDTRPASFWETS
Summary of the method: as §1

[7] = biological target: T7, Itk (Homo sapiens, UniProt Q08881); assay: Kinase inhibition assay (33P transfer), Itk; conditions: Table 3; read-out: Itk-1
T7 construct: Kinases are expressed as either kinase domains or full length constructs; made in house
T7 sequence (Q08881 1-620): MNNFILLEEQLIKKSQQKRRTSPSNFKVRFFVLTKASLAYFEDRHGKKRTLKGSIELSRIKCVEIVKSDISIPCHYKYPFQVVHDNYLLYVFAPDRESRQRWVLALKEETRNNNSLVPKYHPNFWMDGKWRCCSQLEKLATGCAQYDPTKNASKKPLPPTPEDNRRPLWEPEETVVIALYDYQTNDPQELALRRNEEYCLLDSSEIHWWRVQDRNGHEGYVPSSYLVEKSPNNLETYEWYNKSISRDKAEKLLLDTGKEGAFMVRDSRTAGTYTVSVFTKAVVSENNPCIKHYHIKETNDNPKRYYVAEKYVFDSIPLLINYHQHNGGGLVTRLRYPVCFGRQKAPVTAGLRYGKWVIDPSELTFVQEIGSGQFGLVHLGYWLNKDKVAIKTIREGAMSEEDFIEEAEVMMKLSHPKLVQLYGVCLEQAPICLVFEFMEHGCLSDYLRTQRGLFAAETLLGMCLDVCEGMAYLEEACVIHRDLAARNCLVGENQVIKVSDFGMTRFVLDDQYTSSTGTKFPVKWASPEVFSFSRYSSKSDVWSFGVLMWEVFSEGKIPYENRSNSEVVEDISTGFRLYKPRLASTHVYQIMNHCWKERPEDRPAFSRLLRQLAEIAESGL
Summary of the method: as §1

[8] = biological target: T8, Tek (Homo sapiens, UniProt Q02763); assay: Kinase inhibition assay (33P transfer), Tek; conditions: read-out: Tek-1
T8 construct: Kinases are expressed as either kinase domains or full length constructs; made in house
Summary of the method: as §1

[9] = biological target: T9, Lyn (Homo sapiens, UniProt P07948); assay: Kinase inhibition assay (33P transfer), Lyn; conditions: Table 6, Lyn-1 kinase inhibition class
T9 construct: Kinases are expressed as either kinase domains or full length constructs; made in house
T9 sequence (P07948 whole entry, species assumed, the tested form may be a part): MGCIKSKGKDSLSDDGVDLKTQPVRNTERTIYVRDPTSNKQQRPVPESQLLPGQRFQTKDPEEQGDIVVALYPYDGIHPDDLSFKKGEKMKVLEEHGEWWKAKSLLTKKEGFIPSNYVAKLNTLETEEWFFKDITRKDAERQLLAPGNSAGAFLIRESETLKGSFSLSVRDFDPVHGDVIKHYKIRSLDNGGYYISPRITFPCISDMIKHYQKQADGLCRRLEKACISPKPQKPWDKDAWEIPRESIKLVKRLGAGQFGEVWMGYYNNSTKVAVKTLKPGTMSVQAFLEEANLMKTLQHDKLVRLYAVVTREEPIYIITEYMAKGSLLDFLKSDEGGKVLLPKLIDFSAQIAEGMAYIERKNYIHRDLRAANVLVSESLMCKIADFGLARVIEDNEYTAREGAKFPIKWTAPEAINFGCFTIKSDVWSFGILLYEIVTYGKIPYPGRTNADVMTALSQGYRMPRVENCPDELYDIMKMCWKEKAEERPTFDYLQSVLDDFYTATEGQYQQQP
Source text: (§3) The inhibitor compounds described herein are screened in the following manner. Kinases suitable for use in the following protocol to determine kinase activity of the compounds described herein include, -but are not limited to: Lck, Lyn, Src, Fyn, Syk, Zap-70, Itk, Tec, Btk, EGFR, ErbB2, Kdr, Flt-1, Flt-3, Tek, c-Met, InsR, and AKT.
(§4) Kinases are expressed as either kinase domains or full length constructs fused to glutathione S-transferase (GST) or polyHistidine tagged fusion proteins in either E. colior Baculovirus-High Five expression systems. They are purified to near homogeneity by affinity chromatography essentially as previously described (Lehr et al., 1996; Gish et al., 1995). In some instances, kinases are co-expressed or mixed with purified or partially purified regulatory polypeptides prior to measurement of activity.
(§5) Kinase activity and inhibition are measured essentially by established protocols (Braunwalder et al., 1996). Briefly, The transfer of ^33PO4 from ATP to the synthetic substrates poly(Glu, Tyr) 4:1 or poly(Arg, Ser) 3:1 attached to the bioactive surface of microtiter plates serves as the basis to evaluate enzyme activity. After an incubation period, the amount of phosphate transferred is measured by first washing the plate with 0.5% phosphoric acid, adding liquid scintillant, and then counting in a liquid scintillation detector. The IC50 is determined by the concentration of compound that causes a 50% reduction in the amount of […] incorporated onto the substrate bound to the plate.

[10] = biological target: T10, Kdr (Homo sapiens, UniProt P35968); assay: Kinase inhibition assay (33P transfer), Kdr; conditions: Table 3; read-out: KDR-1
T10 construct: Kinases are expressed as either kinase domains or full length constructs; made in house
Summary of the method: as §2

[11] = biological target: T11, Hck-1 (Homo sapiens, UniProt P08631); assay: Kinase inhibition assay (33P transfer), Hck; conditions: Table 6, Hck-1 kinase inhibition class
T11 construct: Kinases are expressed as either kinase domains or full length constructs; made in house

[12] = biological target: T12, ErbB4 (Homo sapiens, UniProt Q15303); assay: Kinase inhibition assay (33P transfer), ErbB4; conditions: read-out: ErbB4-1
T12 construct: Kinases are expressed as either kinase domains or full length constructs; made in house
T12 sequence (Q15303 26-1308, species assumed): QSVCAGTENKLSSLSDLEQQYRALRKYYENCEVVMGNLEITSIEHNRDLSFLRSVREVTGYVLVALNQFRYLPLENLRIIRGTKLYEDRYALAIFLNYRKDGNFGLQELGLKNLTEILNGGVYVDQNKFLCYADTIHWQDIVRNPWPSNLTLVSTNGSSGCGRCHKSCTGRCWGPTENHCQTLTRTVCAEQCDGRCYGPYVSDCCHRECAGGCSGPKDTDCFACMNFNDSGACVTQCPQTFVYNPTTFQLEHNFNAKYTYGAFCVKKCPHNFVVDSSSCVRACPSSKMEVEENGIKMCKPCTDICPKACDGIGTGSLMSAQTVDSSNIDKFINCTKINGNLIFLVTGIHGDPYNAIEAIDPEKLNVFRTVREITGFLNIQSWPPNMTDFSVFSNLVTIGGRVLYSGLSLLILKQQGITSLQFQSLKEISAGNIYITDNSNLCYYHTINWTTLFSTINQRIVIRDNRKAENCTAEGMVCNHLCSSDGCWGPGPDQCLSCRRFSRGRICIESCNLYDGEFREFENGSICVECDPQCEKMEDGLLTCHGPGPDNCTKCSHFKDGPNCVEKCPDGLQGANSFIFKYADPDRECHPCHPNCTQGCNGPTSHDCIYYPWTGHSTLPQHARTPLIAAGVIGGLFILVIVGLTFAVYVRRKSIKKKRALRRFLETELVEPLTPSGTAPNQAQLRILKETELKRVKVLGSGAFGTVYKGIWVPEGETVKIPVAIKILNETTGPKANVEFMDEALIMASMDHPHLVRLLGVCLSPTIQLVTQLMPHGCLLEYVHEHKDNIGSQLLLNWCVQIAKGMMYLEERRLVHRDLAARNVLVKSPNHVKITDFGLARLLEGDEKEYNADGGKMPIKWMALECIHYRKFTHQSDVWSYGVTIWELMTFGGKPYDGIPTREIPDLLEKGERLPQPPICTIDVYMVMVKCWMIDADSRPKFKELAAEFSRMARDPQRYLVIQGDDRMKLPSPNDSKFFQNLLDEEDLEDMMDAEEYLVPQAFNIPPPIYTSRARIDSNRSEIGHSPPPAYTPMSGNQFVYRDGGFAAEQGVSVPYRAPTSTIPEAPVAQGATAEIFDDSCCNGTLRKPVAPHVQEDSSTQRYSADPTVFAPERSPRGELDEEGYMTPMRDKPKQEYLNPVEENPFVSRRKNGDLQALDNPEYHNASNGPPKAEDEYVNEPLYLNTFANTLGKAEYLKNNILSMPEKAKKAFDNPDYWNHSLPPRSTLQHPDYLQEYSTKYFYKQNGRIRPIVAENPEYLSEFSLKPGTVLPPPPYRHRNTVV

[13] = biological target: T13, AKT (Homo sapiens, UniProt Q9Y243); assay: Kinase inhibition assay (33P transfer), AKT; conditions: Table 2, kinase inhibition class; read-out: AKT3-1
T13 construct: Kinases are expressed as either kinase domains or full length constructs; made in house
Summary of the method: as §2

[14] = biological target: T14, Fyn (Homo sapiens, UniProt P06241); assay: Kinase inhibition assay (33P transfer), Fyn; conditions: read-out: Fyn-1
T14 construct: Kinases are expressed as either kinase domains or full length constructs; made in house
T14 sequence (P06241 whole entry, species assumed, the tested form may be a part): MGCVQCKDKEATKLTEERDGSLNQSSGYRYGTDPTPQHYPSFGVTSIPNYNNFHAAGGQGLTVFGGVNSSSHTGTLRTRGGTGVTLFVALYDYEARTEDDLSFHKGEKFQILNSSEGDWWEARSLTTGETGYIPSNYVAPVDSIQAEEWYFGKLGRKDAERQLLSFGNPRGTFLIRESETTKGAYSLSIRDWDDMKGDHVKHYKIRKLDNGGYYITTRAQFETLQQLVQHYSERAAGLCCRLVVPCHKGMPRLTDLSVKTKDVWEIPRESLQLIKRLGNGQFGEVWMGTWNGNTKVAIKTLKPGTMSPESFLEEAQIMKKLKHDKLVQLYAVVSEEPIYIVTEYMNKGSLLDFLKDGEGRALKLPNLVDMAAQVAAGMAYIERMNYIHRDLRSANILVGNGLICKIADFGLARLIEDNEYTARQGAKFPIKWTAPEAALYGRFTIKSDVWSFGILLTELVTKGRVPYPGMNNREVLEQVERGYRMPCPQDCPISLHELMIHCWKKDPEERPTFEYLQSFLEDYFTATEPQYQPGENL
Source text: as §3, §4, §5

[15] = biological target: T15, Src (Homo sapiens, UniProt P12931); assay: Kinase inhibition assay (33P transfer), Src; conditions: Table 6, Src-1 kinase inhibition class
T15 construct: Kinases are expressed as either kinase domains or full length constructs; made in house
Source text: as §3, §4, §5

[16] = biological target: T16, Flt-1 (Homo sapiens, UniProt P17948); assay: Kinase inhibition assay (33P transfer), Flt-1
T16 construct: Kinases are expressed as either kinase domains or full length constructs; made in house
Source text: as §3, §4, §5

| Structure (SMILES) | IC50 [1] [µM] | IC50 [2] [µM] | IC50 [3] [µM] | IC50 [4] [µM] | IC50 [5] [µM] | IC50 [6] [µM] | IC50 [7] [µM] | IC50 [8] [µM] | IC50 [9] [µM] | IC50 [10] [µM] | IC50 [11] [µM] | IC50 [12] [µM] | IC50 [13] [µM] | IC50 [14] [µM] | IC50 [15] [µM] | IC50 [16] [µM] |
| --- | --- | --- | --- | --- | --- | --- | --- | --- | --- | --- | --- | --- | --- | --- | --- | --- |
| COc1cc(Nc2ncnc(-n3c(NCC(C)C)nc4ccccc43)n2)cc(OC)c1OC [Compound 407] | > 10 | < 0.89 | < 0.89 | > 10 | < 0.89 | > 10 | > 10 | > 10 | < 0.89 | < 0.89 | > 10 | > 10 | > 10 | < 0.89 | < 0.89 | < 0.89 |
| CCOC(=O)Cc1cn(-c2ncnc(Nc3cc(OC)c(OC)c(OC)c3)n2)c2ccccc12 [Compound 411] | > 9.71 | < 0.863 | < 0.863 | > 9.71 | 7.55 to 9.71 | < 0.863 | > 9.71 | > 9.71 | 0.863 to 5.18 | < 0.863 | > 9.71 | > 9.71 | > 9.71 | > 9.71 | 0.863 to 5.18 | 0.863 to 5.18 |
| C=CCNc1cc(-c2ncnc(Nc3cc(OC)c(OC)c(OC)c3)n2)ccn1 [Compound 412] | > 11.4 | 6.08 to 8.87 | > 11.4 | > 11.4 | < 1.01 | > 11.4 | > 11.4 | > 11.4 | < 1.01 | 1.01 to 6.08 | > 11.4 | > 11.4 | > 11.4 | > 11.4 | > 11.4 | > 11.4 |
| COc1cc(Nc2ncnc(-n3c(NCc4ccncc4)nc4ccccc43)n2)cc(OC)c1OC [Compound 413] | > 9.29 | < 0.826 | < 0.826 | > 9.29 | > 9.29 | > 9.29 | > 9.29 | > 9.29 | 0.826 to 4.95 | < 0.826 | > 9.29 | > 9.29 | > 9.29 | 0.826 to 4.95 | 0.826 to 4.95 | 0.826 to 4.95 |
| COc1cccc(Nc2nc3ccccc3n2-c2ncnc(Nc3cc(OC)c(OC)c(OC)c3)n2)c1 [Compound 415] | > 9.01 | < 0.801 | < 0.801 | > 9.01 | 4.8 to 7.01 | > 9.01 | > 9.01 | > 9.01 | > 9.01 | < 0.801 | > 9.01 | > 9.01 | > 9.01 | > 9.01 | > 9.01 | 0.801 to 4.8 |
